Converted amounts (≈) assume the structure as drawn. The source made the active and inactive calls. No cut-off for these calls is given here.
What was measured:
Trichomonas vaginalis = test: Anti-trichomonal activity against Trichomonas vaginalis assessed as inhibition of parasite growth incubated for 18 hrs; format: functional, organism-based
[1] = Selectivity index, ratio of IC50 for cytotoxicity against african green monkey Vero cells incubated for 48 hrs by celltiter blue assay to MIC for antibacterial activity against Mycoplasma genitalium G37C assessed as bacterial growth inhibition incubated for 7 days by phenol red reagent based microbroth dilution assay; format: toxicity, cell-based; conditions: read-out: Selectivity Index
[2] = Selectivity index, ratio of IC50 for cytotoxicity against african green monkey Vero cells incubated for 48 hrs by celltiter blue assay to EC50 for anti-trichomonal activity against Trichomonas vaginalis assessed as inhibition of parasite growth incubated for 18 hrs; format: toxicity, cell-based; conditions: read-out: Ratio IC50/EC50
Mycoplasma genitalium [3] = test: Antibacterial activity against Mycoplasma genitalium G37C assessed as bacterial growth inhibition incubated for 7 days by phenol red reagent based microbroth dilution assay; format: functional; conditions: Mycoplasmoides genitalium, 168 h, time 7 day
Mycoplasma genitalium [4] = test: Antibacterial activity against Mycoplasma genitalium Sea-1 assessed as bacterial growth inhibition incubated for 30 mins by qPCR analysis; format: functional, organism-based; conditions: Mycoplasmoides genitalium, Sea-1, 0.5 h
[5] = Selectivity index, ratio of IC50 for cytotoxicity against african green monkey Vero cells incubated for 48 hrs by celltiter blue assay to IC50 for antibacterial activity against Mycoplasma genitalium G37C assessed as bacterial growth inhibition incubated for 30 mins by qPCR analysis; format: toxicity, cell-based; conditions: read-out: Ratio IC50
Mycoplasma genitalium [6] = test: Antibacterial activity against Mycoplasma genitalium G37C assessed as bacterial growth inhibition incubated for 30 mins by qPCR analysis; format: functional, organism-based; conditions: Mycoplasmoides genitalium, 0.5 h
Mycoplasma genitalium [7] = test: Antibacterial activity against Mycoplasma genitalium G37C assessed as growth inhibition at 3 uM measured after 1 month relative to control; format: functional, organism-based; conditions: Mycoplasmoides genitalium, time 1.0 months
[8] = Selectivity index, ratio of IC50 for cytotoxicity against african green monkey Vero cells incubated for 48 hrs by celltiter blue assay to IC50 for antibacterial activity against Mycoplasma genitalium Sea-2 assessed as bacterial growth inhibition incubated for 30 mins by qPCR analysis; format: toxicity, cell-based; conditions: read-out: Ratio IC50
[9] = Selectivity index, ratio of IC50 for cytotoxicity against african green monkey Vero cells incubated for 48 hrs by celltiter blue assay to IC50 for antibacterial activity against Mycoplasma genitalium Sea-1 assessed as bacterial growth inhibition incubated for 30 mins by qPCR analysis; format: toxicity, cell-based; conditions: read-out: Ratio IC50
Mycoplasma genitalium [10] = test: Antibacterial activity against Mycoplasma genitalium Sea-2 assessed as bacterial growth inhibition incubated for 30 mins by qPCR analysis; format: functional, organism-based; conditions: Mycoplasmoides genitalium, Sea-2, 0.5 h
Mycoplasma genitalium [11] = test: Antibacterial activity against Mycoplasma genitalium G37C assessed as growth inhibition at 2 uM relative to control; format: functional; conditions: Mycoplasmoides genitalium
Mycoplasma genitalium [12] = test: Antibacterial activity against Mycoplasma genitalium G37C assessed as growth inhibition at 0.4 uM relative to control; format: functional; conditions: Mycoplasmoides genitalium
Mycoplasma genitalium [13] = test: Antibacterial activity against Mycoplasma genitalium G37C assessed as growth inhibition at 0.6 uM measured after 1 month relative to control; format: functional, organism-based; conditions: Mycoplasmoides genitalium, time 1.0 months

SMILES	EC50 (Trichomonas vaginalis) [nM]	selectivity ratio at 48 h [1]	selectivity ratio at 48 h [2]	MIC90 (Mycoplasma genitalium [3]) [µM]	other results
CCCCC[C@H]1[C@@H](C)C[C@H]2C[C@@H](C)CC[C@@H]2[C@@]1(C)/C(O)=C1\C(=O)[C@@H](CO)N(C)C1=O	2100	64	> 16	0.5 (≈ 0.21 µg/mL)	
C#CCOC[C@@H]1C(=O)/C(=C(/O)[C@@]2(C)[C@@H](/C=C/C=C/C[C@@H](C)O)C(C)=C[C@H]3C[C@@H](C)CC[C@@H]32)C(=O)N1C	3900	15.1	24.3	6.3 (≈ 3.12 µg/mL)	
CCCCC[C@H]1[C@H](C)C[C@H]2C[C@@H](C)CC[C@@H]2[C@@]1(C)/C(O)=C1\C(=O)[C@@H](CO)N(C)C1=O	2700	51.6	72.6	3.8 (≈ 1.59 µg/mL)	
CC1=C[C@H]2C[C@@H](C)CC[C@@H]2[C@@](C)(/C(O)=C2\C(=O)[C@@H](CO)N(C)C2=O)[C@H]1/C=C/C=C/C[C@@H](C)O	60	23.8	315	0.9 (≈ 0.412 µg/mL)	
CCCCC[C@H]1C(C)=C[C@H]2C[C@@H](C)CC[C@@H]2[C@@]1(C)/C(O)=C1\C(=O)[C@@H](CO)N(C)C1=O	710	32	> 170	3.8 (≈ 1.59 µg/mL)	
C/C=C/C=C/[C@H]1C(C)=C[C@H]2C[C@@H](C)CC[C@@H]2[C@@]1(C)/C(O)=C1\C(=O)[C@H](COCc2cn(CCc3ccc(O)cc3)nn2)N(C)C1=O	> 10000	29.7		2.6 (≈ 1.6 µg/mL)	IC50 (Mycoplasma genitalium [4]): 800 nM; selectivity ratio at 48 h [5]: 64; IC50 (Mycoplasma genitalium [6]): 1200 nM; inhibition (Mycoplasma genitalium [7]): inactive; selectivity ratio at 48 h [8]: 77; selectivity ratio at 48 h [9]: 96; IC50 (Mycoplasma genitalium [10]): 1000 nM; inhibition at 2 µM (Mycoplasma genitalium [11]): 90%
C/C=C/C=C/[C@H]1C(C)=C[C@H]2C[C@@H](C)CC[C@@H]2[C@@]1(C)/C(O)=C1\C(=O)[C@@H](COCc2cn(Cc3ccc(C(=O)O)cc3)nn2)N(C)C1=O	2200	1.5	12.8	19.9 (≈ 12.5 µg/mL)	
C/C=C/C=C/[C@H]1C(C)=C[C@H]2C[C@@H](C)CC[C@@H]2[C@@]1(C)/C(O)=C1\C(=O)[C@@H](CO)N(C)C1=O	1800	141	32.1	0.4 (≈ 0.165 µg/mL)	inhibition at 0.4 µM (Mycoplasma genitalium [12]): 90%; inhibition (Mycoplasma genitalium [13]): inactive
C/C=C/C=C/[C@H]1C(C)=C[C@H]2C[C@@H](C)CC[C@@H]2[C@@]1(C)/C(O)=C1/C(=O)N[C@H](CO)C1=O	800	94.8	119	1 (≈ 0.4 µg/mL)	
C/C=C/[C@@H]1C=C[C@@H]2C[C@H](C)CC[C@H]2[C@]1(C)/C(O)=C1\C(=O)[C@H](CO)N(C)C1=O	3000	46.9	4.2	0.3 (≈ 0.112 µg/mL)	
CCCCCC1=C(C)C[C@H]2C[C@@H](C)CC[C@@H]2[C@@]1(C)/C(O)=C1\C(=O)[C@@H](CO)N(C)C1=O	> 10000	13.1	> 8	29.9 (≈ 12.5 µg/mL)	
